Assay results from US11339130B1 (Blade Therapeutics, Inc., priority 2016, dated 2022).
pIC50: −log10 of the molar value.

How the values were obtained:
Format in all cases: biochemical
[1] = molecular target: T1, Human Calpain 1/NS1 (Homo sapiens, UniProt P07384); assay: Calpain inhibition continuous fluorescence (FRET) assay, Human Calpain 1/NS1; details: Column A; read-out: Human Calpain 1/NS1 IC50
T1 sequence (P07384 1-714): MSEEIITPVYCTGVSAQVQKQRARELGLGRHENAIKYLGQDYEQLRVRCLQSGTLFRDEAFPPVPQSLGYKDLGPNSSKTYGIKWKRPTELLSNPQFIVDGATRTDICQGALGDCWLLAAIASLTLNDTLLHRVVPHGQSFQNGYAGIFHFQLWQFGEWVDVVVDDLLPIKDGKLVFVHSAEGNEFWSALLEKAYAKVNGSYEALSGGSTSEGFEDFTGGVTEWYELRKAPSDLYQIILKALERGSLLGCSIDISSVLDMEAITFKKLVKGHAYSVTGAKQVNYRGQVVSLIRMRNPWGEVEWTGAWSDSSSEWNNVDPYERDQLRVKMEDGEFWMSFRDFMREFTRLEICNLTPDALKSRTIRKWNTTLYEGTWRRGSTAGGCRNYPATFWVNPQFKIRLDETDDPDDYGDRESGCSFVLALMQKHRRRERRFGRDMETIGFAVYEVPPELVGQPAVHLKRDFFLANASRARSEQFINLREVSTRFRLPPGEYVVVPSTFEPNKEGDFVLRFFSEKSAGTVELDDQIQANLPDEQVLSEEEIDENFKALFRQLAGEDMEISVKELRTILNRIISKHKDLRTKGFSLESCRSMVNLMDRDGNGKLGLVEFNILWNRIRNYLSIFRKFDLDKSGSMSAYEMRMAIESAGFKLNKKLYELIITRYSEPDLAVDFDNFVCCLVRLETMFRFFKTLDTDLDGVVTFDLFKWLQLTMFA
T1 sequence (P04632 1-268 partner): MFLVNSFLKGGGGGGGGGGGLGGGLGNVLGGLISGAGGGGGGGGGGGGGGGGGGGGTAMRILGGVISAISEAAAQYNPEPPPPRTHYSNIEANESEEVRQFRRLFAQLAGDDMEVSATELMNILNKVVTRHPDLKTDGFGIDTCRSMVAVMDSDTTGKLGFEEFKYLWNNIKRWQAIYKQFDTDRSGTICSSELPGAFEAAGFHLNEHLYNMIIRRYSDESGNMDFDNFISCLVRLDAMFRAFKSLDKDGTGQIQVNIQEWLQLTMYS
Outline: (§1)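 Buffer 50 mM Tris pH 7.5/100 mM NaCl/1 mM DTT; enzyme + cpd preinc 25C; start w/ FRET substrate + CaCl2; kinetic 490/520 nm, 10 min; slopes 1-5 min; 4-PL IC50.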

[2] = molecular target: T2, Human Calpain 9/NS1 (Homo sapiens, UniProt O14815); assay: Calpain inhibition continuous fluorescence (FRET) assay, Human Calpain 9/NS1; details: Column C; read-out: Human Calpain 9/NS1 IC50
T2 sequence (O14815 1-690): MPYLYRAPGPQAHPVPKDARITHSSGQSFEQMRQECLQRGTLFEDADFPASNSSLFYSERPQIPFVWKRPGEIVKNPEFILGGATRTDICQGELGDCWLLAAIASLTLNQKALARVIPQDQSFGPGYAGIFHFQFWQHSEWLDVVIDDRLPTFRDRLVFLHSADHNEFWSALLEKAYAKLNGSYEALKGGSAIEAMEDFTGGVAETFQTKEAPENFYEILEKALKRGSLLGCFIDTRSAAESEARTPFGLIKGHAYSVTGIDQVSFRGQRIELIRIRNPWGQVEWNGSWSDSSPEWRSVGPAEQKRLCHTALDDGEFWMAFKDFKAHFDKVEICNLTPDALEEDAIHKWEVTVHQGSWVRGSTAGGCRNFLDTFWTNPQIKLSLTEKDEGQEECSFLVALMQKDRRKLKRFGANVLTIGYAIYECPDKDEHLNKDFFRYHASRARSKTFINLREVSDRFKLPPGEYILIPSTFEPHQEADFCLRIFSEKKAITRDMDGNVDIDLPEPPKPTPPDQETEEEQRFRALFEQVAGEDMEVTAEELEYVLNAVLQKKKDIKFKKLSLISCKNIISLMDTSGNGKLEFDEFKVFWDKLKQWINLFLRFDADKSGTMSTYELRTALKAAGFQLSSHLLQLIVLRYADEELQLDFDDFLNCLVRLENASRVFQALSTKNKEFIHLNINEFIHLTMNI
T2 sequence (P04632 1-268 partner): T1 sequence (P04632 1-268 partner)
Outline: as §1

[3] = molecular target: T3, Human Calpain 2/NS1 (Homo sapiens, UniProt P17655); assay: Calpain inhibition continuous fluorescence (FRET) assay, Human Calpain 2/NS1; details: Column B; read-out: Human Calpain 2/NS1 IC50
T3 sequence (P17655 1-700): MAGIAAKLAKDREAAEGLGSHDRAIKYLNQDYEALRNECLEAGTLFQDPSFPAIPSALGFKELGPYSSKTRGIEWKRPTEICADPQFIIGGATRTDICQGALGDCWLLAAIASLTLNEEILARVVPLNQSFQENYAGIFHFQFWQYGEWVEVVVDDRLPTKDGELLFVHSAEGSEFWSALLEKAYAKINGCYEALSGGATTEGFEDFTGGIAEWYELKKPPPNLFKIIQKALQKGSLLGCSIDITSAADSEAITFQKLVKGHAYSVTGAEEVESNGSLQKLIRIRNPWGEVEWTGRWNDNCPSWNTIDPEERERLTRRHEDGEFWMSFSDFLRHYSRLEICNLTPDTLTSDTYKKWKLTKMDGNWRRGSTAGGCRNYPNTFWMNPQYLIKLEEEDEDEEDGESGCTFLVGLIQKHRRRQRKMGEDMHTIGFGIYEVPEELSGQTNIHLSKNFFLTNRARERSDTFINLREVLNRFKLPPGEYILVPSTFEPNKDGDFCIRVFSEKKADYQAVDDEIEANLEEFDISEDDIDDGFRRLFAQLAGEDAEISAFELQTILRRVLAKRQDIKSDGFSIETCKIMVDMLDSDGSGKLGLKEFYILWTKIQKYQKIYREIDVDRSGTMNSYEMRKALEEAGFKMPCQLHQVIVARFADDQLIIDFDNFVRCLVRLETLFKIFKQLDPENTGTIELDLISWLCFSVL
T3 sequence (P04632 1-268 partner): T1 sequence (P04632 1-268 partner)
Outline: as §1

Row | SMILES | pIC50 [1] | pIC50 [2] | pIC50 [3]
1 | Cc1cc(C(=O)N[C@@H](Cc2ccccc2)C(=O)C(=O)NCc2ccc(Cl)c(Cl)c2)n(-c2ccccc2)n1 [Compound 149, (S)—N-(4-((3,4-dichlorobenzyl)amino)-3,4-dioxo-1-phenylbutan-2-yl)-3-methyl-1-phenyl-1H-pyrazole-5-carboxamide] | < 5.00 | < 5.00 | < 5.00
2 | Cc1noc(-c2ccccc2)c1C(=O)N[C@@H](Cc1ccccc1)C(=O)C(=O)NCc1cccc(OC(F)(F)F)c1 [Compound 150, (S)—N-(3,4-dioxo-1-phenyl-4-((3-(trifluoromethoxy)benzyl)amino)butan-2-yl)-3-methyl-5-phenylisoxazole-4-carboxamide] | < 5.00 | < 5.00 | < 5.00
3 | Cc1noc(-c2ccccc2)c1C(=O)N[C@@H](Cc1ccccc1)C(=O)C(=O)NCc1ccc(S(C)(=O)=O)cc1 [Compound 151, (S)-3-methyl-N-(4-((4-(methylsulfonyl)benzyl)amino)-3,4-dioxo-1-phenylbutan-2-yl)-5-phenylisoxazole-4-carboxamide] | > 5.52 | > 5.52 | > 5.52
4 | Cc1noc(-c2ccccc2)c1C(=O)N[C@@H](Cc1ccccc1)C(=O)C(=O)NCc1cccc(S(C)(=O)=O)c1 [Compound 152, (s)-3-methyl-N-(4-((3-(methylsulfonyl)benzyl)amino)-3,4-dioxo-1-phenylbutan-2-yl)-5-phenylisoxazole-4-carboxamide] | > 5.52 | > 5.52 | > 5.52
5 | Cn1ncc(C(=O)N[C@@H](Cc2ccccc2)C(=O)C(N)=O)c1-c1ccncc1 [Compound 165, (S)—N-(4-amino-3,4-dioxo-1-phenylbutan-2-yl)-1-methyl-5-(pyridin-4-yl)-1H-pyrazole-4-carboxamide] | > 5.52 | > 5.52 | > 5.52
6 | Cc1ccc(-c2c(C(=O)N[C@@H](Cc3ccccc3)C(=O)C(N)=O)cnn2C)cc1 [Compound 167, (S)—N-(4-amino-3,4-dioxo-1-phenylbutan-2-yl)-1-methyl-5-(p-tolyl)-1H-pyrazole-4-carboxamide] | > 5.52 | > 5.52 | > 5.52
7 | Cn1cc(C(=O)N[C@@H](Cc2ccccc2)C(=O)C(N)=O)c(-c2ccccn2)n1 [Compound 169, (S)—N-(4-amino-3,4-dioxo-1-phenylbutan-2-yl)-1-methyl-3-(pyridin-2-yl)-1H-pyrazole-4-carboxamide] | > 5.52 | > 5.52 | > 5.52
8 | Cn1ncc(C(=O)N[C@@H](Cc2ccccc2)C(=O)C(N)=O)c1-c1cncnc1 [Compound 176, (S)—N-(4-amino-3,4-dioxo-1-phenylbutan-2-yl)-1-methyl-5-(pyrimidin-5-yl)-1H-pyrazole-4-carboxamide] | > 5.52 | > 5.52 | > 5.52
9 | Cn1ncc(C(=O)N[C@@H](Cc2ccccc2)C(=O)C(N)=O)c1-c1cccnc1 [Compound 189, (S)—N-(4-amino-3,4-dioxo-1-phenylbutan-2-yl)-1-methyl-5-(pyridin-3-yl)-1H-pyrazole-4-carboxamide] | > 5.52 | > 5.52 | > 5.52
10 | Cc1ccccc1-c1c(C(=O)N[C@@H](Cc2ccccc2)C(=O)C(N)=O)cnn1C [Compound 190, (S)—N-(4-amino-3,4-dioxo-1-phenylbutan-2-yl)-1-methyl-5-(o-tolyl)-1H-pyrazole-4-carboxamide] | 5.00 to 5.52 | 5.00 to 5.52 | < 5.00
11 | Cn1ncc(C(=O)N[C@@H](Cc2ccccc2)C(=O)C(N)=O)c1-c1ncccn1 [Compound 191, (S)—N-(4-amino-3,4-dioxo-1-phenylbutan-2-yl)-1-methyl-5-(pyrimidin-2-yl)-1H-pyrazole-4-carboxamide] | > 5.52 | > 5.52 | > 5.52
12 | Cn1cc(C(=O)N[C@@H](Cc2ccccc2)C(=O)C(N)=O)c(-c2ccncn2)n1 [Compound 192, (S)—N-(4-amino-3,4-dioxo-1-phenylbutan-2-yl)-1-methyl-3-(pyrimidin-4-yl)-1H-pyrazole-4-carboxamide] | > 5.52 | > 5.52 | > 5.52

The remaining lines, values ahead:

Row | pIC50 [1] | pIC50 [2] | pIC50 [3] | SMILES
13 | > 5.52 | > 5.52 | > 5.52 | Cn1ncc(C(=O)N[C@@H](Cc2ccccc2)C(=O)C(N)=O)c1-c1cccc(C(F)(F)F)n1 [Compound 194, (S)—N-(4-amino-3,4-dioxo-1-phenylbutan-2-yl)-1-methyl-5-(6-(trifluoromethyl)pyridin-2-yl)-1H-pyrazole-4-carboxamide]
14 | > 5.52 | > 5.52 | 5.00 to 5.52 | C=CC[C@H](NC(=O)c1cn(C)nc1-c1ccccc1)C(=O)C(N)=O [Compound 195, N-(1-amino-1,2-dioxohex-5-en-3-yl)-1-methyl-3-phenyl-1H-pyrazole-4-carboxamide]
15 | > 5.52 | 5.00 to 5.52 | > 5.52 | Cn1cc(C(=O)N[C@@H](Cc2ccccc2)C(=O)C(N)=O)c(Br)n1 [Compound 196, (S)—N-(4-amino-3,4-dioxo-1-phenylbutan-2-yl)-3-bromo-1-methyl-1H-pyrazole-4-carboxamide]
16 | > 5.52 | 5.00 to 5.52 | > 5.52 | O=C(NC1CC1)C(=O)[C@H](Cc1ccccc1)NC(=O)c1cncn1-c1ccc(-c2ccccc2)nn1 [Compound 201, (S)—N-(4-(cyclopropylamino)-3,4-dioxo-1-phenylbutan-2-yl)-1-(6-phenylpyridazin-3-yl)-1H-imidazole-5-carboxamide]
17 | < 5.00 | < 5.00 | < 5.00 | O=C(NC1CC1)C(=O)[C@H](Cc1ccccc1)NC(=O)c1nn[nH]c1-c1ccccc1 [Compound 204, (S)—N-(4-(cyclopropylamino)-3,4-dioxo-1-phenylbutan-2-yl)-5-phenyl-1H-1,2,3-triazole-4-carboxamide]
18 | > 5.52 | > 5.52 | > 5.52 | Cc1noc(-c2ccccc2)c1C(=O)N[C@@H](CCc1ccccc1)C(=O)C(N)=O [Compound 205, (S)—N-(1-amino-1,2-dioxo-5-phenylpentan-3-yl)-3-methyl-5-phenylisoxazole-4-carboxamide]
